These results are taken from patent publication US20140235616A1, “PYRAZOLOQUINOLINONE DERIVATIVES, PREPARATION THEREOF AND THERAPEUTIC USE THEREOF” (SANOFI, priority 2011, published 2014).

Structures are written as SMILES.

The experiment has as its target T1, human MetAP2 (Homo sapiens, UniProt P50579).
T1 construct: made in house; host or cells: Sf9 insect cells (baculovirus)
Kind of experiment: MetAP2 enzymatic screening test (isolated enzyme, Met-Pro-Arg-pNa substrate, absorbance at 405 nm). Type of experiment: biochemical. The conditions noted are these: read-out: % inhibition hMETAP2 at 100 nM. On the procedure: The compounds according to the invention underwent biochemical studies in order to determine their capacity to inhibit the enzyme methionine-aminopeptidase2 (enzymatic test on isolated enzyme).
MetAP2 Enzymatic Screening Test
For the enzymatic test, human MetAP2 protein was obtained from a culture supernatant of insect cells (sf9) infected with MetAP2 recombinant baculovirus.
Before performing the experiment, dialysis of the MetAP2 supernatant is performed over 24 hours at 4° C. in a buffer (10 mM Hepes, 100 mM KCl, 10% glycerol, pH 7.4) in the presence of EDTA (1 mM) over the first 12 hours.
The dialysis supernatant is recovered and manganese, used as cofactor, is added to a final concentration of 300 μM.
The enzymatic test is a test in two steps.
Consequently, the second step consists in reacting the peptides cleaved in the preceding step with a second peptidase in order to release the chromophore.

T1 sequence (P50579 whole entry): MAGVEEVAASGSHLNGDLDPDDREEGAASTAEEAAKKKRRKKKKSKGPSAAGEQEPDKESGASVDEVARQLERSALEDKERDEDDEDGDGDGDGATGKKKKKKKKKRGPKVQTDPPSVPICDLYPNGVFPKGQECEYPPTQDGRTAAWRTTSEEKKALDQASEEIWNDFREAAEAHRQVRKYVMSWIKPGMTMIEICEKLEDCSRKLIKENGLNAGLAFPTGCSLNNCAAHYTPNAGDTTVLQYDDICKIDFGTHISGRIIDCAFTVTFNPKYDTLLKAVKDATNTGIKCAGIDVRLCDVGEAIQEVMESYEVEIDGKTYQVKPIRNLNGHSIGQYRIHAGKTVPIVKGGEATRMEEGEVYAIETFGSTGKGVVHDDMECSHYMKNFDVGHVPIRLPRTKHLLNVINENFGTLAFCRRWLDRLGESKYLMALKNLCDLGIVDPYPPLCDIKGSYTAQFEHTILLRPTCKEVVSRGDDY

One may read the inhibition as the change of the read-out against control, counted positive when it falls. With `CCn1c(=O)c2cn[nH]c2c2ccc(-c3ccc(F)c(C(N)=O)c3)cc21` [Compound 36, 5-(5-ethyl-4-oxo-4,5-dihydro-1H-pyrazolo[4,3-c]quinolin-7-yl)-2-fluoro-benzamide], the inhibition at 0.1 µM stood at 61%.
In the case of `Cc1cnc(F)c(-c2ccc3c4[nH]ncc4c(=O)n(CC(F)(F)F)c3c2)c1` [Compound 135, 7-(2-fluoro-5-methylpyrid-3-yl)-5-(2,2,2-trifluoroethyl)-1,5-dihydro-4H-pyrazolo[4,3-c]quinolin-4-one] it was 45%; in that of `COc1ccc(-c2ccc3c4[nH]ncc4c(=O)n(CC(F)(F)F)c3c2)c(CO)c1` [Compound 49, 7-(2-hydroxymethyl-4-methoxyphenyl)-5-(2,2,2-trifluoroethyl)-1,5-dihydro-4H-pyrazolo[4,3-c]quinolin-4-one], 45%.
Take `O=c1c2cn[nH]c2c2ccc(-c3ccccc3S(=O)(=O)N3CCCC3)cc2n1CC(F)(F)F` [Compound 133, 7-[2-(pyrrolidine-1-sulfonyl)phenyl]-5-(2,2,2-trifluoroethyl)-1,5-dihydro-4H-pyrazolo[4,3-c]quinolin-4-one]: the inhibition at 0.1 µM was determined as 45%.
Under `CCn1c(=O)c2cn[nH]c2c2ccc(-c3cccc(C(=O)NCCN(C)C)c3)cc21` [Compound 37, N-(2-dimethylaminoethyl)-3-(5-ethyl-4-oxo-4,5-dihydro-1H-pyrazolo[4,3-c]quinolin-7-yl)benzamide] stands 60%; under `O=c1c2cn[nH]c2c2ccc(-c3cccc(CO)n3)cc2n1CC(F)(F)F` [Compound 154, 7-(6-hydroxymethylpyrid-2-yl)-5-(2,2,2-trifluoroethyl)-1,5-dihydro-4H-pyrazolo[4,3-c]quinolin-4-one], 41%; under `Cc1ccnc(-c2ccc3c4[nH]ncc4c(=O)n(CC(F)(F)F)c3c2)c1` [Compound 187, 7-(4-methylpyrid-2-yl)-5-(2,2,2-trifluoroethyl)-1,5-dihydro-4H-pyrazolo[4,3-c]quinolin-4-one], 40%.
`Cc1cc(-c2ccc3c4[nH]ncc4c(=O)n(CC(F)(F)F)c3c2)cnc1-n1cnnc1` [Compound 139, 7-(5-methyl-6-[1,2,4]triazol-4-ylpyrid-3-yl)-5-(2,2,2-trifluoroethyl)-1,5-dihydro-4H-pyrazolo[4,3-c]quinolin-4-one]: the inhibition at 0.1 µM is 44%.
On to `O=c1c2cn[nH]c2c2ccc(-c3ccccc3CCO)cc2n1CC(F)(F)F` [Compound 131, 7-[2-(2-hydroxy-ethyl)phenyl]-5-(2,2,2-trifluoroethyl)-1,5-dihydro-4H-pyrazolo[4,3-c]quinolin-4-one], for which the inhibition at 0.1 µM came out at 46%.
As to `CCn1c(=O)c2cn[nH]c2c2ccc(-c3cnc(N4CCN(C)CC4)nc3)cc21` [Compound 31, 5-ethyl-7-[2-(4-methylpiperazin-1-yl)pyrimidin-5-yl]-1,5-dihydro-4H-pyrazolo[4,3-c]quinolin-4-one], the inhibition at 0.1 µM came out at 64%.
Under `COc1cc(C)c(-c2ccc3c4[nH]ncc4c(=O)n(CC(F)(F)F)c3c2)cn1` [Compound 161, 7-(6-methoxy-4-methylpyrid-3-yl)-5-(2,2,2-trifluoroethyl)-1,5-dihydro-4H-pyrazolo[4,3-c]quinolin-4-one] stands 39%; under `CCNC(=O)c1cccc(-c2ccc3c4[nH]ncc4c(=O)n(CC)c3c2)c1` [Compound 35, N-ethyl-3-(5-ethyl-4-oxo-4,5-dihydro-1H-pyrazolo[4,3-c]quinolin-7-yl)benzamide], 62%; under `O=c1c2cn[nH]c2c2ccc(-c3ccc(C(O)c4ccccc4)cn3)cc2n1CC(F)(F)F` (centres unmarked) [Compound 152, 7-[5-(hydroxyphenylmethyl)pyrid-2-yl]-5-(2,2,2-trifluoroethyl)-1,5-dihydro-4H-pyrazolo[4,3-c]quinolin-4-one], 41%.
Under `CC(=O)NCc1ccccc1-c1ccc2c3[nH]ncc3c(=O)n(CC(F)(F)F)c2c1` [Compound 151, N-{2-[4-oxo-5-(2,2,2-trifluoroethyl)-4,5-dihydro-1H-pyrazolo[4,3-c]quinolin-7-yl]benzyl}acetamide] stands 41%.
`CC(=O)Nc1ncc(C)cc1-c1ccc2c3[nH]ncc3c(=O)n(CC(F)(F)F)c2c1` [Compound 130, N-{5-methyl-3-[4-oxo-5-(2,2,2-trifluoroethyl)-4,5-dihydro-1H-pyrazolo[4,3-c]quinolin-7-yl]pyrid-2-yl}acetamide]: the inhibition at 0.1 µM is 48%.
Take `CC(C)c1ncncc1-c1ccc2c3[nH]ncc3c(=O)n(CC(F)(F)F)c2c1` [Compound 162, 7-(4-isopropylpyrimidin-5-yl)-5-(2,2,2-trifluoroethyl)-1,5-dihydro-4H-pyrazolo[4,3-c]quinolin-4-one]: the inhibition at 0.1 µM turned out to be 38%.
On to `COC(=O)c1ccccc1-c1ccc2c3[nH]ncc3c(=O)n(CC(F)(F)F)c2c1` [Compound 156, methyl 2-[4-oxo-5-(2,2,2-trifluoroethyl)-4,5-dihydro-1H-pyrazolo[4,3-c]quinolin-7-yl]benzoate], for which the inhibition at 0.1 µM came out at 41%.
Under `COC(=O)c1ccc(-c2ccc3c4[nH]ncc4c(=O)n(CC(F)(F)F)c3c2)c(N)c1` [Compound 55, methyl 3-amino-4-[4-oxo-5-(2,2,2-trifluoroethyl)-4,5-dihydro-1H-pyrazolo[4,3-c]quinolin-7-yl]benzoate] stands 40%; under `CCn1c(=O)c2cn[nH]c2c2ccc(-c3ccc(F)c(C(=O)NC)c3)cc21` [Compound 27, 5-(5-ethyl-4-oxo-4,5-dihydro-1H-pyrazolo[4,3-c]quinolin-7-yl)-2-fluoro-N-methylbenzamide], 67%; under `COc1ccc(-c2ccc3c4[nH]ncc4c(=O)n(CC(F)(F)F)c3c2)c(C)n1` [Compound 138, 7-(6-methoxy-2-methylpyrid-3-yl)-5-(2,2,2-trifluoroethyl)-1,5-dihydro-4H-pyrazolo[4,3-c]quinolin-4-one], 44%.
In the case of `CCn1c(=O)c2cn[nH]c2c2ccc(-c3cc(OC)ccc3F)cc21` [Compound 28, 5-ethyl-7-(2-fluoro-5-methoxyphenyl)-1,5-dihydro-4H-pyrazolo[4,3-c]quinolin-4-one], the inhibition at 0.1 µM worked out at 67%.
Regarding `O=c1c2cn[nH]c2c2ccc(-c3cccc(O)c3)cc2n1CC(F)(F)F` [Compound 40, 7-(3-hydroxyphenyl)-5-(2,2,2-trifluoroethyl)-1,5-dihydro-4H-pyrazolo[4,3-c]quinolin-4-one], the inhibition at 0.1 µM is 40%.
`COc1cc(-c2ccc3c4[nH]ncc4c(=O)n(CC(F)(F)F)c3c2)ccn1` [Compound 158, 7-(2-methoxypyrid-4-yl)-5-(2,2,2-trifluoroethyl)-1,5-dihydro-4H-pyrazolo[4,3-c]quinolin-4-one]: the inhibition at 0.1 µM was 40%.
Under `CCn1c(=O)c2cn[nH]c2c2ccc(-c3ccc(C(=O)N4CCOCC4)c(Cl)c3)cc21` [Compound 29, 7-[3-chloro-4-(morpholine-4-carbonyl)phenyl]-5-ethyl-1,5-dihydro-4H-pyrazolo[4,3-c]quinolin-4-one] stands 67%; under `CN(C)CCOc1cccc(-c2ccc3c4[nH]ncc4c(=O)n(CC(F)(F)F)c3c2)c1` [Compound 155, 7-[3-(2-dimethylaminoethoxy)phenyl]-5-(2,2,2-trifluoroethyl)-1,5-dihydro-4H-pyrazolo[4,3-c]quinolin-4-one], 41%; under `CCn1c(=O)c2cn[nH]c2c2ccc(-c3ccc(C(=O)N4CCN(C)CC4)cc3)cc21` [Compound 21, 5-ethyl-7-[4-(4-methylpiperazine-1-carbonyl)phenyl]-1,5-dihydro-4H-pyrazolo[4,3-c]quinolin-4-one], 70%.
As to `O=c1c2cn[nH]c2c2ccc(-c3ccccc3-c3cnco3)cc2n1CC(F)(F)F` [Compound 148, 7-(2-oxazol-5-ylphenyl)-5-(2,2,2-trifluoroethyl)-1,5-dihydro-4H-pyrazolo[4,3-c]quinolin-4-one], the inhibition at 0.1 µM is 42%.
In the case of `COC(=O)Cc1ccccc1-c1ccc2c3[nH]ncc3c(=O)n(CC(F)(F)F)c2c1` [Compound 144, methyl {2-[4-oxo-5-(2,2,2-trifluoroethyl)-4,5-dihydro-1H-pyrazolo[4,3-c]quinolin-7-yl]phenyl}acetate] it was 43%; in that of `CCn1c(=O)c2cn[nH]c2c2ccc(-c3ccc(C(C)N(C)C)cc3)cc21` (centres unmarked) [Compound 15, 7-[4-(1-dimethylaminoethyl)phenyl]-5-ethyl-1,5-dihydro-4H-pyrazolo[4,3-c]quinolin-4-one], 74%.
As to `O=c1c2cn[nH]c2c2ccc(-c3ccccc3Cn3cncn3)cc2n1CC(F)(F)F` [Compound 159, 7-(2-[1,2,4]triazol-1-ylmethylphenyl)-5-(2,2,2-trifluoroethyl)-1,5-dihydro-4H-pyrazolo[4,3-c]quinolin-4-one], the inhibition at 0.1 µM is 40%.
As for `CCn1c(=O)c2cn[nH]c2c2ccc(-c3ccc(N)cc3C)cc21` [Compound 24, 7-(4-amino-2-methylphenyl)-5-ethyl-1,5-dihydro-4H-pyrazolo[4,3-c]quinolin-4-one], the inhibition at 0.1 µM came out at 67%.
Under `CCn1c(=O)c2cn[nH]c2c2ccc(-c3cccc(C(=O)NCCOC)c3)cc21` [Compound 39, 3-(5-ethyl-4-oxo-4,5-dihydro-1H-pyrazolo[4,3-c]quinolin-7-yl)-N-(2-methoxyethyl)benzamide] stands 60%.
